Assay [1] has as its system U-87 MG human glioblastoma. The assay is described as follows: U87 MG CCK-8 proliferation assay. Type of assay: cell-based. Particulars: U-87 MG cells, read-out: U87MG CCK-8. The method, boiled down:
(§1)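 Lines were maintained according to ATCC guidance. Compounds were then applied as a 3-fold titration from 20 μM to 1.02 nM, and proliferation was measured by CCK-8 absorbance, normalised to DMSO controls minus a no-cell blank.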

In another assay the target is T1, HSP90α protein (Homo sapiens, UniProt P07900).
T1 construct: purchased BPS Bioscience #50298
The assay can be described thus: HSP90α-binding FP (BODIPY) assay. The following applies: FP competition with BODIPY-labeled RNK04010. The method, boiled down: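 Fluorescence polarization measured competition with N-terminal human HSP90α, using either FITC-geldanamycin or BODIPY-labelled triazolone RNK04010 as tracer (5 nM final each). Compounds were tested in 2.5-fold dilutions from 20 μM to 5.2 nM, with incubation at 25 °C for 120 min (FITC) or 300 min (BODIPY).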

The subject of assay [2] is MV-4-11 human acute myeloid leukemia. The assay can be described thus: MV-4-11 CCK-8 proliferation assay. Format: cell-based. Particulars: MV-4-11 cells, 72 hr. Put shortly:
as §1

Where two headings read alike, the source gives them in different places.

Consider `CCOc1cc(N2CCC(C(=O)N3CCC(Cc4ccc(CN(C)Cc5ccc(-n6c(C(=O)NCC(F)(F)F)nnc6-c6cc(CC)c(O)cc6O)cc5)cc4)CC3)CC2)ccc1Nc1ncc2c(n1)N(S(C)(=O)=O)c1ccccc1C(=O)N2C` [Compound 097, 4-(4-(((4-((1-(1-(3-ethoxy-4-((5-methyl-11-(methylsulfonyl)-6-oxo-6,11-dihydro-5H-benzo[e]pyrimido[5,4-b][1,4]diazepin-2-yl)amino)phenyl)piperidine-4-carbonyl)piperidin-4-yl)methyl)benzyl)(methyl)amino)methyl)phenyl)-5-(5-ethyl-2,4-dihydroxyphenyl)-N-(2,2,2-trifluoroethyl)-4H-1,2,4-triazole-3-carboxamide], for which the EC50 in assay [1] (Homo sapiens, U-87 MG, 72 h) was over 1000 nM; in assay [2] (Homo sapiens, MV4-11), under 100 nM. Further, at HSP90α protein, the IC50 (usually the point on the concentration scale where inhibition reaches its midpoint) fell in the range of 100 to 1000 nM.
The matching figures for `CCOc1cc(N2CCC(C(=O)NCCOCCOCCNC(=O)O[C@H]3CC[C@H](Nc4cc(-n5nc(C(F)(F)F)c6c5CC(C)(C)CC6=O)ccc4C(N)=O)CC3)CC2)ccc1Nc1ncc2c(n1)N(C)c1ccccc1C(=O)N2C` [Compound 120, (1R,4R)-4-((2-carbamoyl-5-(6,6-dimethyl-4-oxo-3-(trifluoromethyl)-4,5,6,7-tetrahydro-1H-indazol-1-yl)phenyl)amino)cyclohexyl (2-(2-(2-(1-(4-((5,11-dimethyl-6-oxo-6,11-dihydro-5H-benzo[e]pyrimido[5,4-b][1,4]diazepin-2-yl)amino)-3-ethoxyphenyl)piperidine-4-carboxamido)ethoxy)ethoxy)ethyl)carbamate]: over 1000 nM, 100 to 1000 nM and over 1000 nM.
The matching figures for `CCOc1cc(N2CCC(C(=O)N3CCC(Cc4ccc(CN(C)Cc5ccc(-n6c(C(=O)NCC(F)(F)F)nnc6-c6cc(C)c(O)cc6O)cc5)cc4)CC3)CC2)ccc1Nc1ncc2c(n1)N(S(C)(=O)=O)c1ccccc1C(=O)N2C` [Compound 100, 5-(2,4-dihydroxy-5-methylphenyl)-4-(4-(((4-((1-(1-(3-ethoxy-4-((5-methyl-11-(methylsulfonyl)-6-oxo-6,11-dihydro-5H-benzo[e]pyrimido[5,4-b][1,4]diazepin-2-yl)amino)phenyl)piperidine-4-carbonyl)piperidin-4-yl)methyl)benzyl)(methyl)amino)methyl)phenyl)-N-(2,2,2-trifluoroethyl)-4H-1,2,4-triazole-3-carboxamide]: over 1000 nM, 100 to 1000 nM and over 1000 nM.
As to “(1R,4R)-4-((2-carbamoyl-5-(6,6-dimethyl-4-oxo-3-(trifluoromethyl)-4,5,6,7-tetrahydro-1H-indazol-1-yl)phenyl)amino)cyclohexyl 4-(1-(1-(3-ethoxy-4-((5-methyl-11-(methylsulfonyl)-6-oxo-6,11-dihydro-5H-benzo[e]pyrimido[5,4-b][1,4]diazepin-2-yl)amino)phenyl)piperidine-4-carbonyl)piperidin-4-yl)piperazine-1-carboxylate [Compound 118]”, the EC50 in assay [1] (72 hr) is over 1000 nM; in assay [2] it was 100 to 1000 nM. Further, the 50% inhibitory concentration (IC50) at HSP90α protein is over 1000 nM.
On to `CCOc1cc(N2CCC(C(=O)N3CCC(CN4CCN(Cc5ccc(-n6c(C(N)=O)nnc6-c6cc(CC)c(O)cc6O)cc5)CC4)CC3)CC2)ccc1Nc1ncc2c(n1)N(C)c1ccccc1C(=O)N2C` [Compound 034, 4-(4-((4-((1-(1-(4-((5,11-dimethyl-6-oxo-6,11-dihydro-5H-benzo[e]pyrimido[5,4-b][1,4]diazepin-2-yl)amino)-3-ethoxyphenyl)piperidine-4-carbonyl)piperidin-4-yl)methyl)piperazin-1-yl)methyl)phenyl)-5-(5-ethyl-2,4-dihydroxyphenyl)-4H-1,2,4-triazole-3-carboxamide], for which the EC50 in assay [1] (Homo sapiens, U-87 MG, 72 h) is 100 to 1000 nM; in assay [2] (Homo sapiens, MV4-11) it was under 100 nM. Further, on HSP90α protein, the IC50 is 100 to 1000 nM.
`CCOc1cc(N2CCC(C(=O)N3CCN(c4ccc(-n5c(O)nnc5-c5cc(C(C)C)c(O)cc5O)cc4)CC3)CC2)ccc1Nc1ncc2c(n1)N(C)c1ccccc1C(=O)N2C` [Compound 023, 2-((4-(4-(4-(4-(3-(2,4-dihydroxy-5-isopropylphenyl)-5-hydroxy-4H-1,2,4-triazol-4-yl)phenyl)piperazine-1-carbonyl)piperidin-1-yl)-2-ethoxyphenyl)amino)-5,11-dimethyl-5,11-dihydro-6H-benzo[e]pyrimido[5,4-b][1,4]diazepin-6-one]: the EC50 was 100 to 1000 nM in assay [1] (Homo sapiens, U-87 MG, 72 h) and under 100 nM in assay [2] (Homo sapiens, MV4-11). Moreover, the half-maximal inhibitory concentration (IC50) on HSP90α protein is 100 to 1000 nM.
With `CCOc1cc(N2CCC(C(=O)N3CCC(CN4CCN(Cc5ccc(-n6c(C(=O)NC(C)C(F)(F)F)nnc6-c6cc(CC)c(O)cc6O)cc5)CC4)CC3)CC2)ccc1Nc1ncc2c(n1)N(C)c1ccccc1C(=O)N2C` (stereo not drawn) [Compound 114, 4-(4-((4-((1-(1-(4-((5,11-dimethyl-6-oxo-6,11-dihydro-5H-benzo[e]pyrimido[5,4-b][1,4]diazepin-2-yl)amino)-3-ethoxyphenyl)piperidine-4-carbonyl)piperidin-4-yl)methyl)piperazin-1-yl)methyl)phenyl)-5-(5-ethyl-2,4-dihydroxyphenyl)-N-(1,1,1-trifluoropropan-2-yl)-4H-1,2,4-triazole-3-carboxamide], the EC50 is 100 to 1000 nM in assay [1] (Homo sapiens, U-87 MG, 72 h) and under 100 nM in assay [2] (Homo sapiens, MV4-11). This compound registered an IC50 at HSP90α protein of 100 to 1000 nM.
With `CCOc1cc(N2CCC(C(=O)N[C@H](C)c3ccc(CN4CCC(Cc5ccc(-n6c(O)nnc6-c6cc(C(C)C)c(O)cc6O)cc5)CC4)cc3)CC2)ccc1Nc1ncc2c(n1)N(S(C)(=O)=O)c1ccccc1C(=O)N2C` [Compound 077, (R)—N-(1-(4-((4-(4-(3-(2,4-dihydroxy-5-isopropylphenyl)-5-hydroxy-4H-1,2,4-triazol-4-yl)benzyl)piperidin-1-yl)methyl)phenyl)ethyl)-1-(3-ethoxy-4-((5-methyl-11-(methylsulfonyl)-6-oxo-6,11-dihydro-5H-benzo[e]pyrimido[5,4-b][1,4]diazepin-2-yl)amino)phenyl)piperidine-4-carboxamide], the EC50 was 100 to 1000 nM in assay [1] (Homo sapiens, U-87 MG, 72 h) and under 100 nM in assay [2] (Homo sapiens, MV4-11). The same compound returned an IC50 at HSP90α protein of 100 to 1000 nM.
As for `CCOc1cc(N2CCC(C(=O)N3CCN(Cc4ccc(-n5c(O)nnc5-c5cc(C(C)C)c(O)cc5O)cc4C(F)(F)F)CC3)CC2)ccc1Nc1ncc2c(n1)N(S(C)(=O)=O)c1ccccc1C(=O)N2C` [Compound 072, 2-((4-(4-(4-(4-(3-(2,4-dihydroxy-5-isopropylphenyl)-5-hydroxy-4H-1,2,4-triazol-4-yl)-2-(trifluoromethyl)benzyl)piperazine-1-carbonyl)piperidin-1-yl)-2-ethoxyphenyl)amino)-5-methyl-11-(methylsulfonyl)-5,11-dihydro-6H-benzo[e]pyrimido[5,4-b][1,4]diazepin-6-one], the EC50 is 100 to 1000 nM in assay [1] (Homo sapiens, U-87 MG, 72 h) and under 100 nM in assay [2] (Homo sapiens, MV4-11). The compound further returned an IC50 on HSP90α protein of 100 to 1000 nM.
As to `CCOc1cc(N2CCC(C(=O)N3CCN(CCOc4ccc(Nc5cc(-n6nc(C(F)(F)F)c7c6CC(C)(C)CC7=O)ccc5C(N)=O)cc4)CC3)CC2)ccc1Nc1ncc2c(n1)N(S(C)(=O)=O)c1ccccc1C(=O)N2C` [Compound 094, 4-(6,6-dimethyl-4-oxo-3-(trifluoromethyl)-4,5,6,7-tetrahydro-1H-indazol-1-yl)-2-((4-(2-(4-(1-(3-ethoxy-4-((5-methyl-11-(methylsulfonyl)-6-oxo-6,11-dihydro-5H-benzo[e]pyrimido[5,4-b][1,4]diazepin-2-yl)amino)phenyl)piperidine-4-carbonyl)piperazin-1-yl)ethoxy)phenyl)amino)benzamide], the EC50 in assay [1] (Homo sapiens, U-87 MG, 72 h) is over 1000 nM; in assay [2] (Homo sapiens, MV4-11), 100 to 1000 nM. Besides, the 50% inhibitory concentration (IC50) at HSP90α protein lay in the range of 100 to 1000 nM.
Regarding `CCOc1cc(N2CCC(C(=O)N3CCC(CN4CCN(C(=O)O[C@H]5CC[C@H](Nc6cc(-n7nc(C(F)(F)F)c8c7CC(C)(C)CC8=O)ccc6C(N)=O)CC5)CC4)CC3)CC2)ccc1Nc1ncc2c(n1)N(C)c1ccccc1C(=O)N2C` [Compound 121, (1R,4R)-4-((2-carbamoyl-5-(6,6-dimethyl-4-oxo-3-(trifluoromethyl)-4,5,6,7-tetrahydro-1H-indazol-1-yl)phenyl)amino)cyclohexyl 4-((1-(1-(4-((5,11-dimethyl-6-oxo-6,11-dihydro-5H-benzo[e]pyrimido[5,4-b][1,4]diazepin-2-yl)amino)-3-ethoxyphenyl)piperidine-4-carbonyl)piperidin-4-yl)methyl)piperazine-1-carboxylate], the EC50 in assay [1] (Homo sapiens, U-87 MG, 72 h) is over 1000 nM; in assay [2] (Homo sapiens, MV4-11), over 1000 nM. This compound registered a half-maximal inhibitory concentration (IC50) at HSP90α protein of over 1000 nM.
On to `CCOc1cc(N2CCC(C(=O)N3CCN(Cc4ccc(-n5c(O)nnc5-c5cc(CC)c(O)cc5O)cc4)CC3)CC2)ccc1Nc1ncc2c(n1)N(S(C)(=O)=O)c1ccccc1C(=O)N2C` [Compound 086, 2-((2-ethoxy-4-(4-(4-(4-(3-(5-ethyl-2,4-dihydroxyphenyl)-5-hydroxy-4H-1,2,4-triazol-4-yl)benzyl)piperazine-1-carbonyl)piperidin-1-yl)phenyl)amino)-5-methyl-11-(methylsulfonyl)-5,11-dihydro-6H-benzo[e]pyrimido[5,4-b][1,4]diazepin-6-one], for which the EC50 in assay [1] (Homo sapiens, U-87 MG, 72 h) was 100 to 1000 nM; in assay [2] (Homo sapiens, MV4-11), under 100 nM. On HSP90α protein, this compound had an IC50 of under 100 nM.

The values are drawn from patent publication US20240124460A1, “METHODS AND COMPOSITIONS FOR TARGETED PROTEIN DEGRADATION” (Ranok Therapeutics (Hangzhou) Co. Ltd., priority 2020, published 2024).
